Laboratory results reported in article PMC3527483, “Phospholipid Mediated Activation of Calcium Dependent Protein Kinase 1 (CaCDPK1) from Chickpea: A New Paradigm of Regulation” (PLoS ONE, 2012).

Target: T1, CaCDPK1 (Cicer arietinum, UniProt Q7XZK5)
T1 construct: gene CDPK1; full ORF in pRSET A (His-tag), expressed in Escherichia coli BL21, Ni-NTA purified under native conditions; tag removal not mentioned
Test: intrinsic tryptophan fluorescence quenching at […] nm
Assay type: binding
Settings: PA vesicles (sonicated), 1 mM CaCl2, pH 7.2, 25 °C, 1 µM protein; half-maximal fluorescence change; activator

T1 sequence (Q7XZK5 1-556): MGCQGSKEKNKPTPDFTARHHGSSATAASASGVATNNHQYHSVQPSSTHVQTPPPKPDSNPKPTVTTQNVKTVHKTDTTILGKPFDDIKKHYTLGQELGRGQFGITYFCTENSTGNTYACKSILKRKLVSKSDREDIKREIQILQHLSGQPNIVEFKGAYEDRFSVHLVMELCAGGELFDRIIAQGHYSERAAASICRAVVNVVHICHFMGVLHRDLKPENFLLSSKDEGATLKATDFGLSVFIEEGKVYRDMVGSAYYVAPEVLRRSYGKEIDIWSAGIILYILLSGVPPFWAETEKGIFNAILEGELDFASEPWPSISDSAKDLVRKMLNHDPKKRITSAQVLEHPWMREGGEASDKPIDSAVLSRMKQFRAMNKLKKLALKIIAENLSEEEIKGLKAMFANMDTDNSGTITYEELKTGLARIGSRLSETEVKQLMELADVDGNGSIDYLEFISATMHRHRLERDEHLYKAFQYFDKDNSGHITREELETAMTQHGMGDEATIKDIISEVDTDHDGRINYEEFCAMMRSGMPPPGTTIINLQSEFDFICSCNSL

Work on “1,2-diacyl-sn-gylcero-3-P sodium salt [PA]” yielded a Kd of 335 nM.
